In one data set the test system is human plasma. Kind of data set: Human plasma in vitro aPTT (activated partial thromboplastin time). The class given is biochemical. The procedure: 2. Testing of Human Plasma in vitro aPTT (Activated Partial Thromboplastin Time)
To test the anticoagulant effect of the compounds disclosed herein against human plasma in vitro
1) Plasma: fresh human venous blood was mixed well with 0.109 M sodium citrate at a ratio of 9:1, and then the mixture was centrifuged at 3000 rpm for 15 min. The upper plasma was collected and tested within 2-5 h.
2) Reagents: aPTT reagent (activated partial thromboplastin time kit, mindray), PT reagent (prothrombin time kit, mindray), and calcium chloride solution.
3) Instruments: coagulometer (Beijing Precil, C2000-4).
Test compounds were each dissolved in DMSO to prepare a 10 mM stock solution. The plasma was serially diluted to 400 μM, 200 μM, 100 μM, 50 μM, 25 μM, 12.5 μM, 6.25 μM, 3.125 μM, 1.563 μM, 0.781 μM, 0.390 μM and 0.195 μM with the 10 mM stock solution of each compound, and the blank control was 100% DMSO. The reagents, plasma and compounds were placed at corresponding positions in a coagulometer to detect the aPTT and PT of the compounds.
The concentrations of compounds corresponding to aPTT2× and PT2× (i.e., aPTT and PT of 2-fold blank control) were calculated by Prism curve fitting and the results are shown in Table 2 below: […]

A further data set addresses Human Factor XIa (Homo sapiens (Human), UniProt P03951). Kind of data set: Screening assay for inhibitory activity against enzyme hFXIa (human factor XIa). The format is biochemical. The note with it: substrate S-2366, pH 7.4, 37° C., absorbance 405 nm. The procedure: 1. Screening Assay for Inhibitory Activity against Enzyme hFXIa (Human Factor XIa)
To Test the Inhibitory Activity of the Compounds Disclosed herein Against Human Factor XIa
100 mM Tris-HCl (Sigma, Cat. No.: T2663, Lot No.: SLBG2775)
Enzyme: Human Factor XIa (Abcam, Cat No.: ab62411), total amount of 50 μg; dissolved in assay buffer and packaged.
3) Instruments and consumables
SpectraMax 340PC multifunctional microplate reader (Molecular Devices)
384-well black transparent reaction plate (Corning, Cat. No.: 3712)
Echo liquid workstation (Labcyte)
A 384-well polypropylene compound plate (Labcyte-P-05525) was used in Echo
A 384 shallow-well polypropylene compound plate (Labcyte-LP-0200, 2.5-12 μL) was used in Echo
Mutidrop automatic dispenser (Thermo Scientific)
Mutidrop consumables (Thermo Scientific-24073290)
Test compounds were each dissolved in DMSO to prepare a 10 mM solution and stored in a nitrogen cabinet.
1) Preparation for compounds
All test compounds were prepared using Echo, subjected to gradient dilution and transferred to a 384-well reaction plate at 100 nL. The reference compound and the test samples, with an initial concentration of 200 μM, were subjected to 3-fold dilution to get 10 concentrations (the final concentration was 1 μM). To high signal wells were added DMSO, and to low signal wells were added 100 μM reference compound. Reference can be made to the sample distribution for distributions of samples and control.
1) Preparation for enzyme human factor XIa
Enzyme human factor XIa was diluted to 0.5 μg/mL with assay buffer.
3) Preparation for substrate S-2306
S-2306 was prepared at a concentration of 1 mM using the assay buffer.
4) 10 μL of 0.5 μg/mL enzyme human factor XIa was added to the reaction plate using a Mutidrop automatic dispenser and the final concentration was 5 ng/well.
5) 10 μL of 1 mM S-2306 was added to the reaction plate using a Mutidrop automatic dispenser and the final concentration was 0.5 mM.
6) Centrifugation was performed at 1000 rpm for 10 s.
7) The reaction plate was incubated in SpectraMax 340PC at 37° C. for 10 min and the absorbance was measured at 405 nm.
8) Data were analyzed using GraphPad Prism 5.0.
% inhibition rate=100%×[1—(sample reading—mean of low signal wells)/(mean of high signal wells—mean of low signal wells)]
IC50 was analyzed using […]:
Y=Bottom+(Top−Bottom)/(1+10^((LogIC50−X)*Hill Slope))
Y is % inhibition rate and X is the logarithm of the sample concentration.

A short description of the next data set: Pharmacokinetics in rats. The class given is in vivo. Conditions: male SD rats. The procedure: 3. Pharmacokinetics in Rats
To determine the pharmacokinetic parameters of the compounds disclosed herein in rats
1) Experimental drug: compound 1-2;
2) Experimental animals: 4 male SD rats aged 7-9 weeks, randomly divided into 2 groups, 2 rats for each group;
3) Drug preparation: a proper amount of the drug was weighed out and dissolved in a mixed solvent of DMAC:solutol:water=10:10:80 to prepare two solutions of 0.2 mg/mL and 0.5 mg/mL, respectively;
Animals in group 1 were administered with the 0.2 mg/mL drug at a dose of 0.5 mg/kg by single injection via the tail vein, and animals in group 2 were administered with the 0.5 mg/mL compound at a dose of 3 mg/kg by gavage. Animal plasma samples were collected 0.0833 (only the tail vein injection group), 0.25, 0.5, 1, 2, 4, 6, 8 and 24 h after administration. The drug concentration in plasma samples was determined using LC-MS/MS method, and the kinetic parameters of the test drug are shown in Table 3: […]

This is an account of results in patent publication US12018027B2, “Macrocyclic derivatives acting as XIa factor inhibitor” (CHINA RESOURCES BIOPHARMACEUTICAL COMPANY LIMITED, priority 2019, dated 2024).

Human Factor XIa, sequence (P03951 388-625): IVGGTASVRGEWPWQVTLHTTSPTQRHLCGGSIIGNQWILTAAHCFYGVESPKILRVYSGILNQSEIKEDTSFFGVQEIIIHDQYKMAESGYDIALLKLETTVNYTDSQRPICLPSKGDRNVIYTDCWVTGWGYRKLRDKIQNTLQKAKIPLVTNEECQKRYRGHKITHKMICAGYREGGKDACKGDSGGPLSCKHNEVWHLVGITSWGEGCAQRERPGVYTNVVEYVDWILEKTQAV
Human Factor XIa, sequence (P03951 19-387 partner): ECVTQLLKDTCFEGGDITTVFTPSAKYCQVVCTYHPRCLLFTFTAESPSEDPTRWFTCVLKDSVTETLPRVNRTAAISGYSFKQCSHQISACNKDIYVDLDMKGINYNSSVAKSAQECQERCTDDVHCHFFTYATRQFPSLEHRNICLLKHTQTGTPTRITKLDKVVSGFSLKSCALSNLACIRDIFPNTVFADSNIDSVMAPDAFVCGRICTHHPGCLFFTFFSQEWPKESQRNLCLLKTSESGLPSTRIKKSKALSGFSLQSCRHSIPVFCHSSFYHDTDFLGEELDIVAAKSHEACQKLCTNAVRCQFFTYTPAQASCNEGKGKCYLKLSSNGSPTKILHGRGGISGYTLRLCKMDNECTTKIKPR

The IC50 is the concentration that gives 50% inhibition. Low values mean higher potency, high ones lower potency. On to `C[C@@H]1CCC[C@@H](c2ccc(-c3cc(Cl)ccc3-n3cc(Cl)nn3)oc2=O)c2cc(ccn2)-c2c(cnn2C(F)F)NC1=O` (single isomer, unassigned) [Compound 1-2], for which, in the data set on human plasma, the “aPTT2× (concentration giving aPTT of 2-fold blank control)” value turned out to be 0.87 µM. For the same compound, the IC50 at Human Factor XIa is 3.9 nM. Besides, in “Pharmacokinetics in rats” (gavage 3 mg/kg vs tail vein injection 0.5 mg/kg), the “Bioavailability F” value is 37.1%. Further, in the data set “Pharmacokinetics in rats” (gavage, 3 mg/kg), the “Area under curve AUC” value is 5.205 µM·h and the “Time of peak concentration T1/2” value worked out at 3 h. The Cmax in the data set “Pharmacokinetics in rats” (gavage, 3 mg/kg, read-out: Peak concentration Cmax) was 0.986 µM. For the same compound, in the data set “Pharmacokinetics in rats” (tail vein injection, 0.5 mg/kg), the “Area under curve AUC” value worked out at 2.339 µM·h, the “Clearance Cl” value stood at 0.339 L/h/kg, the “Half life T1/2” value was determined as 1.04 h and the “Volume of distribution Vd” value was 0.533 L/kg. In addition, in “Pharmacokinetics in rats” (tail vein injection, 0.5 mg/kg, read-out: Initial concentration C0), the C0 came out at 1.8 µM.

The compound `C[C@H]1CCC[C@@H](c2ccc(-c3cc(Cl)ccc3-n3cc(Cl)nn3)oc2=O)c2cc(ccn2)-c2c(cnn2C(F)F)NC1=O` (single isomer, unassigned) [Compound 1-4] came in with an IC50 at Human Factor XIa of 34.1 nM.

As to `C[C@@H]1CCC[C@@H](c2ccc(-c3cc(Cl)ccc3-n3cc(C(F)F)nn3)oc2=O)c2cc(ccn2)-c2c(cnn2C(F)F)NC1=O` (single isomer, unassigned) [Compound 3-1], in the data set on human plasma, the “aPTT2× (concentration giving aPTT of 2-fold blank control)” value stood at 1.37 µM. In addition, at Human Factor XIa, the IC50 amounted to 3.81 nM.

Compound `C[C@@H]1CCC[C@@H](c2ccc(-c3cc(Cl)ccc3-n3cc(C4CC4)nn3)oc2=O)c2cc(ccn2)-c2c(cnn2C(F)F)NC1=O` (single isomer, unassigned) [Compound 4-1] had an IC50 on Human Factor XIa of 21.7 nM.

On to `C[C@@H]1CCC[C@@H](c2ccc(-c3cc(Cl)ccc3-n3cc(Cl)nn3)n(C)c2=O)c2cc(ccn2)-c2c(cnn2C(F)F)NC1=O` (single isomer, unassigned) [Compound 5-1], for which the midpoint of inhibition against Human Factor XIa, the IC50, lay at 8.22 nM.

In the case of `CCOc1cn(-c2ccc(Cl)cc2-c2ccc([C@@H]3CCC[C@@H](C)C(=O)Nc4cnn(C(F)F)c4-c4ccnc3c4)c(=O)o2)nn1` (single isomer, unassigned) [Compound 6-2], on Human Factor XIa, the IC50 amounted to 20.4 nM.

Take `C[C@@H]1CCC[C@@H](c2ccc(-c3cc(Cl)ccc3-n3ccnn3)oc2=O)c2cc(ccn2)-c2c(cnn2C(F)F)NC1=O` [Compound 2-1]: the “aPTT2× (concentration giving aPTT of 2-fold blank control)” value with human plasma came to 0.65 µM. Moreover, the IC50 at Human Factor XIa was 3.39 nM.

Regarding `C[C@@H]1CCC[C@H](c2ccc(-c3cc(Cl)ccc3-n3ccnn3)oc2=O)c2cc(ccn2)-c2c(cnn2C(F)F)NC1=O` [Compound 2-2], on Human Factor XIa, inhibition was half-maximal at 10.7 nM (IC50).
